The structures appear in SMILES notation. Like-named read-outs stand apart in the source and are kept apart here.

The assay has as its target SARS-CoV-2 Mpro (Severe acute respiratory syndrome coronavirus 2, UniProt P0DTD1). Briefly: SARS-CoV-2 Mpro enzymatic inhibition assay (fluorescence). Type of assay: biochemical. On the procedure:
The hCoV Mpro are cloned, expressed in E. coli and purified by WuXi AppTec Co., Ltd. The substrate are synthesized by Genscript Biotech.
Compounds are 3 fold serially diluted for 10 doses and added to an assay plate (384w format) using ECHO, in duplicate wells. The test concentration of test compounds is defined by sponsor.
25 μL of Mpro proteins are added to the assay plates containing compounds, respectively, using Multidrop. The compounds and Mpro proteins are pre-incubated at room temperature for 30 min. Then 5 µL of Mpro substrates are added to the related assay plates, respectively.
After 60 min incubation at 30° C., the fluorescence signal (RFU) is detected using a microplate reader M2e (SpectraMax) at Ex/Em=340 nm/490 nm.
The inhibition activity is calculated using the formula below, IC50 values will be calculated using the Inhibition % data.
IC50 values of compounds are calculated with the GraphPad Prism software using the nonlinear regression model of log(inhibitor) vs. response—Variable slope (four parameters).

The IC50 is the concentration at which inhibition is half-maximal. `CC1(C)[C@@H]2[C@@H](C(=O)N[C@H](C=O)C[C@@H]3CCNC3=O)N(C(=O)c3cc4ccc(Cl)cc4[nH]3)C[C@@H]21` [Compound 42, (1R,2S,5S)-3-(6-Chloro-1H-indole-2-carbonyl)-6,6-dimethyl-N—((S)-1-oxo-3-((S)-2-oxopyrrolidin-3-yl)propan-2-yl)-3-azabicyclo[3.1.0]hexane-2-carboxamide] yielded a half-maximal inhibitory concentration (IC50) of 22.1 nM.
`O=C[C@H](C[C@@H]1CCNC1=O)NC(=O)[C@@H]1CC2(CC2)CN1C(=O)c1cc2cccc(F)c2[nH]1` [Compound 87, (S)-5-(7-Fluoro-1H-indole-2-carbonyl)-N—((S)-1-oxo-3-((S)-2-oxopyrrolidin-3-yl)propan-2-yl)-5-azaspiro[2.4]heptane-6-carboxamide] displayed an IC50 of 40.1 nM.
`CC(C)Oc1cccc2[nH]c(C(=O)N3C[C@H]4[C@@H]([C@H]3C(=O)N[C@H](C=O)C[C@@H]3CCNC3=O)C4(C)C)cc12` [Compound 66, (1R,2S,5S)-3-(4-Isopropoxy-1H-indole-2-carbonyl)-6,6-dimethyl-N—((S)-1-oxo-3-((S)-2-oxopyrrolidin-3-yl)propan-2-yl)-3-azabicyclo[3.1.0]hexane-2-carboxamide] registered an IC50 of 27.6 nM.
Turning to `CC1(C)[C@@H]2[C@@H](C(=O)N[C@@H](C[C@@H]3CCNC3=O)C(=O)C(=O)NC3CC3)N(C(=O)C3(c4cccc(Cl)c4)CC3)C[C@@H]21` [Compound 45, (1R,2S,5S)-3-(1-(3-Chlorophenyl)cyclopropanecarbonyl)-N—((S)-4-(cyclopropylamino)-3,4-dioxo-1-((S)-2-oxopyrrolidin-3-yl)butan-2-yl)-6,6-dimethyl-3-azabicyclo[3.1.0]hexane-2-carboxamide], the IC50 stood at 22.5 nM.
For `CC1(C)[C@@H]2[C@@H](C(=O)N[C@H](C=O)C[C@@H]3CCNC3=O)N(C(=O)c3cc4c(F)c(Cl)ccc4[nH]3)C[C@@H]21` [Compound 117, (1R,2S,5S)-3-(5-Chloro-4-fluoro-1H-indole-2-carbonyl)-6,6-dimethyl-N—((S)-1-oxo-3-((S)-2-oxopyrrolidin-3-yl)propan-2-yl)-3-azabicyclo[3.1.0]hexane-2-carboxamide], half-maximal inhibition (IC50) required 126 nM.
`CCOc1cccc2[nH]c(C(=O)N3C[C@H]4[C@@H]([C@H]3C(=O)N[C@H](C=O)C[C@@H]3CCNC3=O)C4(C)C)cc12` [Compound 70, (1R,2S,5S)-3-(4-Ethoxy-1H-indole-2-carbonyl)-6,6-dimethyl-N—((S)-1-oxo-3-((S)-2-oxopyrrolidin-3-yl)propan-2-yl)-3-azabicyclo[3.1.0]hexane-2-carboxamide] returned a half-maximal inhibitory concentration (IC50) of 30.1 nM.
For `CC1(C)[C@@H]2[C@@H](C(=O)N[C@H](C=O)C[C@@H]3CCNC3=O)N(C(=O)c3cc4cc(Cl)cc(Cl)c4[nH]3)C[C@@H]21` [Compound 44, (1R,2S,5S)-3-(5,7-Dichloro-1H-indole-2-carbonyl)-6,6-dimethyl-N—((S)-1-oxo-3-((S)-2-oxopyrrolidin-3-yl)propan-2-yl)-3-azabicyclo[3.1.0]hexane-2-carboxamide], the IC50 came out at 22.2 nM.
`CC1(C)[C@@H]2[C@@H](C(=O)N[C@@H](C[C@@H]3CCNC3=O)C(=O)C(=O)NC3CC3)N(C(=O)C3(c4ccccc4)CC3)C[C@@H]21` [Compound 119, (1R,2S,5S)—N—((S)-4-(cyclopropylamino)-3,4-dioxo-1-((S)-2-oxopyrrolidin-3-yl)butan-2-yl)-6,6-dimethyl-3-(1-phenylcyclopropanecarbonyl)-3-azabicyclo[3.1.0]hexane-2-carboxamide] came in with a half-maximal inhibitory concentration (IC50) of 143 nM.
For `O=C[C@H](C[C@@H]1CCNC1=O)NC(=O)[C@@H]1C[C@H](C2CCCCC2)CN1C(=O)c1cc2ccccc2[nH]1` [Compound 103, (2S,4R)-4-cyclohexyl-1-(1H-Indole-2-carbonyl)-N—((S)-1-oxo-3-((S)-2-oxopyrrolidin-3-yl)propan-2-yl)pyrrolidine-2-carboxamide], the IC50 came to 63.9 nM.
`CC1CCC(CC(=O)N2C[C@H]3[C@@H]([C@H]2C(=O)N[C@@H](C[C@@H]2CCNC2=O)C(=O)C(=O)NC2CC2)C3(C)C)CC1` (stereo partly drawn) [Compound 105, (1R,2S,5S)—N—((S)-4-(Cyclopropylamino)-3,4-dioxo-1-((S)-2-oxopyrrolidin-3-yl)butan-2-yl)-6,6-dimethyl-3-(2-(4-methylcyclohexyl)acetyl)-3-azabicyclo[3.1.0]hexane-2-carboxamide] returned an IC50 of 73.2 nM.
With `O=C[C@H](C[C@@H]1CCNC1=O)NC(=O)[C@@H]1C[C@@H](Oc2ccccc2)CN1C(=O)c1cc2ccccc2[nH]1` [Compound 133, (2S,4R)-1-(1H-Indole-2-carbonyl)-N—((S)-1-oxo-3-((S)-2-oxopyrrolidin-3-yl)propan-2-yl)-4-phenoxypyrrolidine-2-carboxamide], half-maximal inhibition (IC50) was put at 443 nM.
On to `CC1(C)[C@@H]2[C@@H](C(=O)N[C@@H](C[C@@H]3CCNC3=O)C(=O)C(=O)NC3CC3)N(C(=O)C3(c4ccccc4)CCCC3)C[C@@H]21` [Compound 99, (1R,2S,5S)—N—((S)-4-(Cyclopropylamino)-3,4-dioxo-1-((S)-2-oxopyrrolidin-3-yl)butan-2-yl)-6,6-dimethyl-3-(1-phenylcyclopentanecarbonyl)-3-azabicyclo[3.1.0]hexane-2-carboxamide], for which the 50% inhibitory concentration (IC50) was 51.4 nM.
As for `COc1cc2[nH]c(C(=O)N3C[C@H]4[C@@H]([C@H]3C(=O)N[C@H](C=O)C[C@@H]3CCNC3=O)C4(C)C)cc2cc1F` [Compound 101, (1R,2S,5S)-3-(5-Fluoro-6-methoxy-1H-indole-2-carbonyl)-6,6-dimethyl-N—((S)-1-oxo-3-((S)-2-oxopyrrolidin-3-yl)propan-2-yl)-3-azabicyclo[3.1.0]hexane-2-carboxamide], the IC50 was 56.3 nM.
The same measure, in the same setting: with `CC1(C)[C@@H]2[C@@H](C(=O)N[C@H](C=O)C[C@@H]3CCNC3=O)N(C(=O)c3cc4c(C5CC5)cccc4[nH]3)C[C@@H]21` [Compound 41, (1R,2S,5S)-3-(4-Cyclopropyl-1H-indole-2-carbonyl)-6,6-dimethyl-N—((S)-1-oxo-3-((S)-2-oxopyrrolidin-3-yl)propan-2-yl)-3-azabicyclo[3.1.0]hexane-2-carboxamide] the figure was 21.8 nM.
In the case of `CC1(C)C[C@@H](C(=O)N[C@H](C=O)C[C@@H]2CCNC2=O)N(C(=O)c2cc3ccccc3[nH]2)C1` [Compound 57, (S)-1-(1H-Indole-2-carbonyl)-4,4-dimethyl-N—((S)-1-oxo-3-((S)-2-oxopyrrolidin-3-yl)propan-2-yl)pyrrolidine-2-carboxamid], the IC50 (mean, 25 nM protein, 25 μM substrate, 30 min pre-incubation, 60 min at 30° C., read-out: Mpro_SARS-CoV-2 mean IC50) is 25.8 nM.
Take `N#Cc1cccc2cc(C(=O)N3CC4(CC4)C[C@H]3C(=O)N[C@H](C=O)C[C@@H]3CCNC3=O)[nH]c12` [Compound 46, (S)-5-(7-cyano-1H-indole-2-carbonyl)-N—((S)-1-oxo-3-((S)-2-oxopyrrolidin-3-yl)propan-2-yl)-5-azaspiro[2.4]heptane-6-carboxamide]: half-maximal inhibition (IC50) required 22.5 nM.
For `CC1(C)[C@@H]2[C@@H](C(=O)N[C@H](C=O)C[C@@H]3CCNC3=O)N(C(=O)c3cc4ccc(C(F)(F)F)cc4[nH]3)C[C@@H]21` [Compound 96], half-maximal inhibition (IC50) was put at 49.2 nM.
`O=C[C@H](C[C@@H]1CCNC1=O)NC(=O)[C@@H]1C[C@H](Oc2ccccc2)CN1C(=O)c1cc2ccccc2[nH]1` [Compound 134, (2S,4S)-1-(1H-Indole-2-carbonyl)-N—((S)-1-oxo-3-((S)-2-oxopyrrolidin-3-yl)propan-2-yl)-4-phenoxypyrrolidine-2-carboxamide]: the IC50 turned out to be 451 nM.
Take `CC(C)(C)[C@H](NC(=O)c1cc2ccccc2[nH]1)C(=O)N1C[C@H]2[C@@H]([C@H]1C(=O)N[C@@H](C[C@@H]1CCNC1=O)C(=O)C(N)=O)C2(C)C` [Compound 116, N—((S)-1-((1R,2S,5S)-2-(((S)-4-amino-3,4-dioxo-1-((S)-2-oxopyrrolidin-3-yl)butan-2-yl)carbamoyl)-6,6-dimethyl-3-azabicyclo[3.1.0]hexan-3-yl)-3,3-dimethyl-1-oxobutan-2-yl)-1H-indole-2-carboxamide]: inhibition was half-maximal at 118 nM (IC50).
`COc1ccc2[nH]c(C(=O)N3C[C@H]4[C@@H]([C@H]3C(=O)N[C@H](C=O)C[C@@H]3CCNC3=O)C4(C)C)cc2c1` [Compound 68, (1R,2S,5S)-3-(5-Methoxy-1H-indole-2-carbonyl)-6,6-dimethyl-N—((S)-1-oxo-3-((S)-2-oxopyrrolidin-3-yl)propan-2-yl)-3-azabicyclo[3.1.0]hexane-2-carboxamide] had a half-maximal inhibitory concentration (IC50) of 28 nM.
